From ChEMBL document CHEMBL5344406, “1,2,3-Triazole-containing hybrids with potential antibacterial activity against ESKAPE pathogens” (2022)
Converted amounts (≈) assume the structure as drawn.

Assays:
Format in all cases: functional
Staphylococcus aureus [1] = test: Potency index, ratio of Norfloxacin MIC to test compound MIC for antibacterial activity against Staphylococcus aureus assessed as bacterial growth inhibition by broth dilution method
Staphylococcus aureus [2] = test: Antibacterial activity against multidrug-resistant Staphylococcus aureus clinical isolate assessed as bacterial growth inhibition by broth dilution method
Staphylococcus aureus [3] = test: Antibacterial activity against Staphylococcus aureus assessed as bacterial growth inhibition by broth dilution method
Staphylococcus aureus [4] = test: Antibacterial activity against methicillin-resistant Staphylococcus aureus assessed as bacterial growth inhibition by agar dilution method
Pseudomonas aeruginosa [5] = test: Antibacterial activity against Pseudomonas aeruginosa ATCC 27853 assessed as bacterial growth inhibition incubated for 18 to 24 hrs by turbidimetry; settings: time 18-24 hrs
Staphylococcus aureus [6] = test: Antibacterial activity against Staphylococcus aureus ATCC 25923 assessed as bacterial growth inhibition incubated for 18 to 24 hrs by turbidimetry; settings: time 18-24 hrs
Escherichia coli [7] = test: Antibacterial activity against Escherichia coli ATCC 25922 assessed as bacterial growth inhibition incubated for 18 to 24 hrs by turbidimetry; settings: time 18-24 hrs
Bacillus subtilis [8] = test: Antibacterial activity against Bacillus subtilis ATCC 6633 assessed as bacterial growth inhibition incubated for 18 to 24 hrs by turbidimetry; settings: time 18-24 hrs
Escherichia coli [9] = test: Antibacterial activity against Escherichia coli MTCC 1687 assessed as bacterial growth inhibition by serial dilution method
Pseudomonas aeruginosa [10] = test: Antibacterial activity against Pseudomonas aeruginosa assessed as bacterial growth inhibition by serial dilution method
Escherichia coli [11] = test: Potency index, ratio of Ciprofloxacin MIC to test compound MIC for antibacterial activity against Escherichia coli MTCC 1687 assessed as bacterial growth inhibition by serial dilution method
Staphylococcus aureus [12] = test: Antibacterial activity against Staphylococcus aureus MTCC 737 assessed as bacterial growth inhibition by serial dilution method
Pseudomonas aeruginosa [13] = test: Potency index, ratio of Ciprofloxacin MIC to test compound MIC for antibacterial activity against Pseudomonas aeruginosa assessed as bacterial growth inhibition by serial dilution method
Staphylococcus aureus [14] = test: Potency index, ratio of Ciprofloxacin MIC to test compound MIC for antibacterial activity against Staphylococcus aureus MTCC 737 assessed as bacterial growth inhibition by serial dilution method
Bacillus subtilis [15] = test: Potency index, ratio of Streptomycin MIC to test compound MIC for antibacterial activity against Bacillus subtilis assessed as bacterial growth inhibition incubated for 18 to 20 hrs by broth microdilution method; settings: time 18-20 hrs
Bacillus subtilis [16] = test: Antibacterial activity against Bacillus subtilis assessed as bacterial growth inhibition incubated for 18 to 20 hrs by broth microdilution method; settings: time 18-20 hrs
Escherichia coli [17] = test: Potency index, ratio of Streptomycin MIC to test compound MIC for antibacterial activity against Escherichia coli JM109 assessed as bacterial growth inhibition incubated for 18 to 20 hrs by broth microdilution method; settings: time 18-20 hrs
Escherichia coli [18] = test: Antibacterial activity against Escherichia coli JM109 assessed as bacterial growth inhibition incubated for 18 to 20 hrs by broth microdilution method; settings: time 18-20 hrs
Staphylococcus aureus [19] = test: Potency index, ratio of azithromycin MIC to test compound MIC for antibacterial activity against penicillin-resistant Staphylococcus aureus ATCC 31007 assessed as bacterial growth inhibition incubated for 24 hrs by CLSI based broth microdilution method
Streptococcus pneumoniae [20] = test: Potency index, ratio of azithromycin MIC to test compound MIC for antibacterial activity against erythromycin-resistant Streptococcus pneumoniae AB11 expressing ermB/mefA assessed as bacterial growth inhibition incubated for 24 hrs by CLSI based broth microdilution method
Streptococcus pneumoniae [21] = test: Antibacterial activity against erythromycin-resistant Streptococcus pneumoniae AB11 expressing ermB/mefA assessed as bacterial growth inhibition incubated for 24 hrs by CLSI based broth microdilution method
Staphylococcus aureus [22] = test: Antibacterial activity against penicillin-resistant Staphylococcus aureus ATCC 31007 assessed as bacterial growth inhibition incubated for 24 hrs by CLSI based broth microdilution method
Streptococcus pneumoniae [23] = test: Antibacterial activity against erythromycin-resistant Streptococcus pneumoniae B1 expressing ermB assessed as bacterial growth inhibition incubated for 24 hrs by CLSI based broth microdilution method
Staphylococcus aureus [24] = test: Potency index, ratio of azithromycin MIC to test compound MIC for antibacterial activity against methicillin-resistant Staphylococcus aureus ATCC 43300 assessed as bacterial growth inhibition incubated for 24 hrs by CLSI based broth microdilution method
Streptococcus pneumoniae [25] = test: Potency index, ratio of azithromycin MIC to test compound MIC for antibacterial activity against erythromycin-resistant Streptococcus pneumoniae B1 expressing ermB assessed as bacterial growth inhibition incubated for 24 hrs by CLSI based broth microdilution method
Streptococcus pyogenes [26] = test: Potency index, ratio of azithromycin MIC to test compound MIC for antibacterial activity against erythromycin-resistant Streptococcus pyogenes clinical isolate 2 assessed as bacterial growth inhibition incubated for 24 hrs by CLSI based broth microdilution method
Escherichia coli [27] = test: Antibacterial activity against Escherichia coli clinical isolate assessed as bacterial growth inhibition by disk diffusion method
Streptococcus pyogenes [28] = test: Antibacterial activity against erythromycin-resistant Streptococcus pyogenes clinical isolate 2 assessed as bacterial growth inhibition incubated for 24 hrs by CLSI based broth microdilution method
Staphylococcus aureus [29] = test: Antibacterial activity against methicillin-resistant Staphylococcus aureus ATCC 43300 assessed as bacterial growth inhibition incubated for 24 hrs by CLSI based broth microdilution method
Staphylococcus aureus [30] = test: Antibacterial activity against Staphylococcus aureus clinical isolate assessed as bacterial growth inhibition by disk diffusion method
Escherichia coli [31] = test: Antibacterial activity against Escherichia coli assessed as bacterial growth inhibition incubated for 18 hrs by absorbance based assay
Staphylococcus aureus [32] = test: Antibacterial activity against methicillin-resistant Staphylococcus aureus assessed as bacterial growth inhibition incubated for 18 hrs by absorbance based assay
Acinetobacter baumannii = test: Antibacterial activity against Acinetobacter baumannii assessed as bacterial growth inhibition incubated for 18 hrs by absorbance based assay
Klebsiella pneumoniae = test: Antibacterial activity against multi-drug Klebsiella pneumoniae assessed as bacterial growth inhibition incubated for 18 hrs by absorbance based assay

In the case of `CC(=O)OC[C@@H]1O[C@H](n2cc(Cn3c(=O)c4ccccc4n(CCCCCCCCCC[P+](c4ccccc4)(c4ccccc4)c4ccccc4)c3=O)nn2)[C@@H](OC(C)=O)[C@H]1OC(C)=O.[Br-]`, the Ratio (Staphylococcus aureus [1]) is reported as 7.5, the MIC (Staphylococcus aureus [2]) is reported as 1 µg/mL and the MIC (Staphylococcus aureus [3]) is reported as 1 µg/mL.
For `COc1cc(/C=C/c2ccc(OCc3cn(-c4ccc(C(=O)O)cc4)nn3)cc2)cc(OC)c1`, the MIC (Staphylococcus aureus [4]) was 1.2 µg/mL (≈ 2.62 µM).
Work on `COc1cc(/C=C/c2ccc(O)cc2)cc(OC)c1` [PTEROSTILBENE] yielded an MIC (Staphylococcus aureus [4]) of 41 µg/mL (≈ 160 µM).
In the case of `Nc1c(C(=O)N2CCN(c3cc4c(cc3F)c(=O)c(C(=O)O)cn4C3CC3)CC2)nnn1-c1ccccc1`, the MIC (Pseudomonas aeruginosa [5]) is reported as 15.6 µg/mL (≈ 30.1 µM), the MIC (Staphylococcus aureus [6]) is reported as 15.6 µg/mL (≈ 30.1 µM) and the MIC (Escherichia coli [7]) is reported as 15.6 µg/mL (≈ 30.1 µM). For the same molecule, the MIC (Bacillus subtilis [8]) was 15.6 µg/mL (≈ 30.1 µM).
In the case of `COc1cccc2cc(C(=O)c3cn(-c4ccc(Cl)cc4)nn3)c(=O)oc12`, the MIC (Escherichia coli [9]) is reported as 6.25 µg/mL (≈ 16.4 µM), the MIC (Pseudomonas aeruginosa [10]) is reported as 6.25 µg/mL (≈ 16.4 µM) and the Ratio (Escherichia coli [11]) is reported as 2. It also gave an MIC (Staphylococcus aureus [12]) of 6.25 µg/mL (≈ 16.4 µM), a Ratio (Pseudomonas aeruginosa [13]) of 2 and a Ratio (Staphylococcus aureus [14]) of 2.
With `CC(=O)OC[C@@H]1O[C@H](n2cc(Cn3c(=O)cc(C)n(CCCCCCCC[P+](c4ccccc4)(c4ccccc4)c4ccccc4)c3=O)nn2)[C@@H](OC(C)=O)[C@H]1OC(C)=O.[Br-]` the Ratio (Staphylococcus aureus [1]) was 7.5, the MIC (Staphylococcus aureus [2]) was 1 µg/mL and the MIC (Staphylococcus aureus [3]) was 1 µg/mL.
In the case of `Cc1cc2cc(C#CCCCCCCc3cn(C4(C(C)C)Oc5cc6oc(=O)ccc6cc5C4=O)nn3)c(=O)oc2cc1O` (stereo not drawn), the Ratio (Bacillus subtilis [15]) is reported as 100, the MIC (Bacillus subtilis [16]) is reported as 0.02 µg/mL (≈ 0.0337 µM) and the Ratio (Escherichia coli [17]) is reported as 6.7. For the same molecule, the MIC (Escherichia coli [18]) was 0.15 µg/mL (≈ 0.253 µM).
`O=C(N[C@H](CO)[C@H](O)c1ccc([N+](=O)[O-])cc1)C(Cl)Cl` [CHLORAMPHENICOL] gave a Ratio (Staphylococcus aureus [19]) greater than 16, a Ratio (Streptococcus pneumoniae [20]) greater than 16 and an MIC (Streptococcus pneumoniae [21]) greater than 256 µg/mL. The MIC (Staphylococcus aureus [22]) was greater than 256 µg/mL, the MIC (Streptococcus pneumoniae [23]) was greater than 256 µg/mL and the Ratio (Staphylococcus aureus [24]) was greater than 16. The Ratio (Streptococcus pneumoniae [25]) was greater than 16, the Ratio (Streptococcus pyogenes [26]) was greater than 16 and the MIC (Escherichia coli [27]) was 22.4 µg/mL (≈ 69.3 µM). It also gave an MIC (Streptococcus pyogenes [28]) greater than 256 µg/mL, an MIC (Staphylococcus aureus [29]) greater than 256 µg/mL and an MIC (Staphylococcus aureus [30]) of 11.6 µg/mL (≈ 35.9 µM).
`Cc1ccc(S(=O)(=O)OCCn2cc(COc3cccc4cccnc34)nn2)cc1` showed an MIC (Escherichia coli [31]) of 75.4 µg/mL (≈ 178 µM), an MIC (Staphylococcus aureus [32]) of 75.4 µg/mL (≈ 178 µM) and an MIC (Acinetobacter baumannii) of 75.4 µg/mL (≈ 178 µM). For the same molecule, the MIC (Klebsiella pneumoniae) was 75.4 µg/mL (≈ 178 µM).
